# In US20250241890A1, “1,4-DIUREAS AND 1,4-DITHIOUREAS AND USES THEREOF” (Purdue Research Foundation, priority 2024, published 2025):
# Target: T1, α-synuclein (α-syn) (Homo sapiens, UniProt P37840)
# T1 construct: purchased rPeptide (Watkinsville, GA)
# Test: Thioflavin T (ThT) fluorescence assay of α-syn fibril formation
# Assay type: biochemical
# Settings: for remaining activity at 100 µM: α-syn 2 μM final concentration, compounds at 100 μM, average of three replicates with SEM, read-out: % ThT intensity (100 μM), maximum ThT intensity in percentage
# Protocol: Chemical and peptide source. Dimethylsulfoxide (DMSO) and thioflavin-T (ThT) were purchased from Alfa Aesar (Ward Hill, MA). Recombinant α-synuclein (α-syn) was procured from rPeptide (WatKinsville, GA). The recombinant p-tau isoform 1N4R was prepared as published previously (Fortin et al. 2021, Sui et al. 2015, Liu et al. 2020). Concerning the preparation of tau 0N4R, a bacterial expression plasmid consisting of the vector pET30a carrying a cDNA encoding the human Tau 0N4R isoform was a kind gift of Dr. Benjamin Wolozin (Boston University). E. coli stock (Rosetta BL21 E. coli (CamR) containing pET30a [0N4R tau wt] (KanR)) was grown in LB medium supplemented with kanamycin (50 μg/mL) and chloramphenicol (50 μg/mL). Protein over-expression was induced by the addition of 1 mM IPTG for ˜18 hours at 37° C., and cells were pelleted by centrifugation at 6,000 g for 15 minutes at 4° C. The cells were resuspended in lysis buffer (10 mM Hepes, pH 7.4, 50 mM NaCl, 1 mM MgCl2, 1 mM PMSF, 1× PIC, and 0.5 mM DTT) and lysed by sonication at 30 seconds “On” and 1 minute “Off” at ˜30-45% power for ˜3-5 minutes. Lysate was centrifuged at 10,000 rpm for 10 minutes at 4° C., and supernatant was transferred with 7.8 ml (total) of 3M NaCl. The lysate was incubated for 10 minutes in 80° C. water bath, then cooled for 10 minutes in an ice bath. The lysate was centrifuged at 10,000 rpm at 4° C. for 10 minutes, and the supernatant was transferred to a new tube. The supernatant was dialyzed overnight against cation exchange buffer (50 mM MES, […], 1 mM DTT, pH 6.0). The dialysate was loaded onto a HiPrep SP HP column, and proteins were eluted with a linear gradient ranging from 50 mM to 1 M NaCl. General Characterizations. ^1H and ^13C {1H} NMR spectra were recorded using a 500 MHz Bruker instrument working at a frequency of 500 MHz for ^1H and at 126 MHz for ^13C. Chemical shifts are reported in ppm using residual solvent resonances as internal reference (δ 2.50 and δ 39.51 for ^1H and ^13C in DMSO-d6, respectively). ^1H NMR data are reported as follows. b=broad, s=singlet, d=doublet, t=triplet, q=quartet, and m=multiplet. Coupling constants are given in hertz. The purity of all compounds and synthetic intermediates was judged to be 95% or better based on ^1H NMR. IR measurements were performed in a Nicolet FTIR as thin films in the Purdue Drug Discovery facility. High-resolution mass spectrometry analyses were conducted at the MSU Mass Spectrometry facility. Thioflavin fluorescence assays. […] The recombinant α-syn obtained from rPeptide has been validated with proper quality control to confirm the monomeric state of the protein. Kinetics of fibril formation have been performed using ThT as published previously.^6, 12, 13, 24 The fluorescence emission experiments were performed with the excitation and emission wavelengths set at 440 and 485 nm, respectively, with a Synergy HT multi-mode microplate reader (BioTek, Winooski, VT). Samples were measured in three replicates. Experiments were repeated three times using different α-syn stock solutions. For each time point, arbitrary units of fluorescence were calculated from the mean values normalized against the maximum value. The percentage of fluorescence intensity at the plateau phase in Table 1 was expressed as mean #SEM. Concerning the dose response curve depicted in FIG. 2, the data were plotted using GraphPad Prism. Photo-induced Cross-linking of Unmodified Proteins (PICUP) Assay. To induce oligomerization by cross-linking, α-syn (from Rpeptide, LLC) was diluted in 10 mM phosphate buffer (pH 7.4) to reach a final concentration of 50 μM. Different compounds were added to the protein solution at a final concentration of 50 μM, resulting in a molar ratio of 1:1. PICUP assays were performed with the following controls: samples without light exposition, without Ru(bpy) or ammonium persulfate, and without compound (i.e., 0.125% DMSO). […]
"EC50 (Log (agonist) vs. normalized response (variable slope), Prism, α-syn 6 μM, 47 hours, 12.5, 25, 50 and 100 μM, read-out: Log EC50 (dose response curve of α-syn fibrillation, ThT) (converted)) [µM]",remaining activity at 100 µM [%],"dose-dependent reduction of α-syn fibrillation (ThT) (α-syn 6 μM, 47 hours, 12.5, 25, 50 and 100 μM)",SMILES
15.9 ± 2.8,5.3,–,"O=C(Nc1ccc(NC(=O)Nc2cccc3[nH]ccc23)cc1)Nc1cccc2[nH]ccc12 [Compound 1, 3-(1H-indol-4-yl)-1-(4-{[(1H-indol-4-yl)carbamoyl]amino}phenyl)urea]"
–,15.2,dose-dependent reduction,"S=C(Nc1ccc(NC(=S)Nc2cccc3[nH]ccc23)cc1)Nc1cccc2[nH]ccc12 [Compound 2, 3-(1H-indol-4-yl)-1-(4-{[(1H-indol-4-yl)carbamothioyl]amino}phenyl)thiourea]"
–,41.6,–,"S=C(Nc1ccc(NC(=S)Nc2cccc3cc[nH]c23)cc1)Nc1cccc2cc[nH]c12 [Compound 8, 3-(1H-indol-7-yl)-1-(4-{[(1H-indol-7-yl)carbamothioyl]amino}phenyl)thiourea]"
